Biological target: T1, breast cancer resistance protein (BCRP) (Homo sapiens, UniProt Q9UNQ0)
T1 sequence (Q9UNQ0 1-655): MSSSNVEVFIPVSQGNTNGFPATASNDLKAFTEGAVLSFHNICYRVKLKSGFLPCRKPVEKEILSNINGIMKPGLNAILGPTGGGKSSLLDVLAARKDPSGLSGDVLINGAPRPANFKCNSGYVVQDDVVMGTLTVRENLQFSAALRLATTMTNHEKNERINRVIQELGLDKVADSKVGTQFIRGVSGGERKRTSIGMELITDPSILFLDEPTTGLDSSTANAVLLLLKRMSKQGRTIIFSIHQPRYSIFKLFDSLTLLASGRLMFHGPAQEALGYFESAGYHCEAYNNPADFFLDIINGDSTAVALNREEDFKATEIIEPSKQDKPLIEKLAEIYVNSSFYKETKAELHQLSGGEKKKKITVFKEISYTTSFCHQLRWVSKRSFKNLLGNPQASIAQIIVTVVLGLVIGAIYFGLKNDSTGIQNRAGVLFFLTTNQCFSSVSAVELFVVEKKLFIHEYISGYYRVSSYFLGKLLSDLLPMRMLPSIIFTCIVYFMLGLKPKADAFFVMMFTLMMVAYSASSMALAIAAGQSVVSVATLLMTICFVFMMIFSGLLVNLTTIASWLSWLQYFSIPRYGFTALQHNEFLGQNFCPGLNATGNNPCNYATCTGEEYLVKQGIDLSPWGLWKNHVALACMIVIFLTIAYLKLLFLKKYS
Test: biochemical

EC50: 3.59 ± 0.42 µM
Compound: CNC(=O)c1cc(Oc2ccc(NC(=O)Nc3ccc(Cl)c(C(F)(F)F)c3)c(F)c2)ccn1 [regorafenib]

— article PMC8148022 (Cancer letters, 2018)
